Values of other authors, collected in patent US10363268B2, “Proton-binding polymers for oral administration” (Tricida, Inc., priority 2013, dated 2019).

Test system: adult patients with CKD

For `O=C([O-])O.[Na+]` [sodium bicarbonate, Sodium bicarbonate], the “patients experiencing rapid progression (rapid decline of CrCl >3 ml/min per 1.73 m^2/yr)” value (CKD patients, 2 years) is listed as 9%, the “patients who developed ESRD” value (CKD patients, 2 years, ESRD = CrCl<10 ml/min) is listed as 6.5% and the “decline in CrCl” value (CKD patients, oral sodium bicarbonate for 2 years, average dose 1.82 g/day) is listed as 1.88 ml/min per 1.73 m^2. For the same compound, the “relative risk of ESRD” value (versus control group) was 0.13 and the “relative risk of rapid progression” value (versus control group) was 0.15.
